Biological target: recombinant human SAE enzyme (Homo sapiens (Human), UniProt Q9UBT2)
Experiment: SAE HTRF enzyme assay
Assay type: biochemical
Details: for Percent Inhibition: Concentration 0.111 μM; for IC50: class symbols A/B/C
Procedure: Example 215: SAE HTRF enzyme assay
The SAE enzymatic reaction totals 50 μl and contains 50 mM HEPES Hemisodium (pH 7.5), 0.05% BSA, 5 mM MgCl2, 0.5 μM ATP, 250 μM GSH, 0.01 μM Ubc9-GST, 0.125 μM Sumo-Flag and 0.11 nM recombinant human SAE enzyme. The enzymatic reaction mixture, with and without inhibitor, Is incubated at 24° C. for 105 min in a 384-well plate before termination with […] of Stop/Detection buffer (0.1M HEPES Hemisodium pH 7.5, 0.05% Tween20, 20 mM EDTA, 410 mM KF, 0.53 nM Europium-Cryptate labeled monoclonal anti-Flag M2 Antibody (CisBio International) and 8.125 μg/ml PHYCOLINK goat anti-GST allophycocyanin (XL-APC) antibody (Prozyme)). After incubation for 2 hours at 24° C., quantification of FRET is performed on the Pherostar™ (BMG Labtech). Percentage inhibition values at a single concentration or enzyme inhibition (IC50) values are determined from those curves. One skilled in the art will appreciate that the values generated either as percentage inhibition at a single concentration or IC50 values are subject to experimental variation.

Chain of recombinant human SAE enzyme (Q9UBT2 whole entry): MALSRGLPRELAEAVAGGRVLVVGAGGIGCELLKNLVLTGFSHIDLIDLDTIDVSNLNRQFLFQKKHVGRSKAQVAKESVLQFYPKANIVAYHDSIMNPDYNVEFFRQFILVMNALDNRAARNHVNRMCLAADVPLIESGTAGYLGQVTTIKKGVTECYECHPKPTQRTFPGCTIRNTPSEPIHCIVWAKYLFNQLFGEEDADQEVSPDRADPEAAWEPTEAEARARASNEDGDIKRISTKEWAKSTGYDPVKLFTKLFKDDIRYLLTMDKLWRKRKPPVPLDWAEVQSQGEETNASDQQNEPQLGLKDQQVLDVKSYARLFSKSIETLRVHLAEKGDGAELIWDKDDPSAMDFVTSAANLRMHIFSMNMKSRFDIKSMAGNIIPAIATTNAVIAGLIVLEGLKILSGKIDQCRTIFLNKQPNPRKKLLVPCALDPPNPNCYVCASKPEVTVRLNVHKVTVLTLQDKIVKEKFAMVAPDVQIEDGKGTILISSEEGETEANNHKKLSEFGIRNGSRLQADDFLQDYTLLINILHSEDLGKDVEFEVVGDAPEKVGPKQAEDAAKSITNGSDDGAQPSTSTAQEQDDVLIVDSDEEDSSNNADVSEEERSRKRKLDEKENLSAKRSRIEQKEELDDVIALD
Chain of recombinant human SAE enzyme (Q9UBE0 whole entry partner): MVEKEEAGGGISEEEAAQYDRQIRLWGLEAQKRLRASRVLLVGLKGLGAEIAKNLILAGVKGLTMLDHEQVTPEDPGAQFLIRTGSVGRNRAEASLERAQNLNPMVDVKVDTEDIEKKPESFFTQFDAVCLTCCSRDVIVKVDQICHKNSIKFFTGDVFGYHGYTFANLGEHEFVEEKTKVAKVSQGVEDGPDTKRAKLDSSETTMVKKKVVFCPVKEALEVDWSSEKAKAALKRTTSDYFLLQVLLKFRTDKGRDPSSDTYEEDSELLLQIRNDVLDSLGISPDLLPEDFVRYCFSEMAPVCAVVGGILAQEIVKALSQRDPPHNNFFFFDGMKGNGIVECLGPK

SMILES | Percent Inhibition | IC50 [nM]
NS(=O)(=O)OCC1CC(Nc2ncncc2C(=O)c2cc(C(O)(c3cccc(Cl)c3)C3CC3)cs2)CC1O (mixture of isomers) [I-50, [(1R,2S,4R)-4-{[5-({4-[(S)-(3-chlorophenyl)(cyclopropyl)hydroxymethyl]-2-thienyl}carbonyl)pyrimidin-4-yl]amino}-2-hydroxycyclopentyl]methyl sulfamate and [(1R,2S,4R)-4-{[5-({4-[(R)-(3-chlorophenyl)(cyclopropyl)hydroxymethyl]-2-thienyl}carbonyl)pyrimidin-4-yl]amino}-2-hydroxycyclopentyl]methyl sulfamate] | 99 | < 10
C[C@](O)(c1csc(C(=O)c2cncnc2N[C@@H]2C[C@H](COS(N)(=O)=O)[C@@H](O)C2)c1)c1cccc(Br)n1 (mixture of isomers) [I-54, [(1R,2S,4R)-4-{[5-({4-[(1S)-1-(6-bromopyridin-2-yl)-1-hydroxyethyl]-2-thienyl}carbonyl)pyrimidin-4-yl]amino}-2-hydroxycyclopentyl]methyl sulfamate and [(1R,2S,4R)-4-{[5-({4-[(1R)-1-(6-bromopyridin-2-yl)-1-hydroxyethyl]-2-thienyl}carbonyl)pyrimidin-4-yl]amino}-2-hydroxycyclopentyl]methyl sulfamate] | 99 | < 10
NS(=O)(=O)OC[C@H]1C[C@@H](Nc2ncncc2C(=O)c2cc([C@H](O)c3ccccc3)c(Cl)s2)C[C@@H]1O (mixture of isomers) [I-56, [(1R,2S,4R)-4-{[5-({5-chloro-4-[(R)-hydroxy(phenyl)methyl]-2-thienyl}carbonyl)pyrimidin-4-yl]amino}-2-hydroxycyclopentyl]methyl sulfamate and [(1R,2S,4R)-4-{[5-({5-chloro-4-[(S)-hydroxy(phenyl)methyl]-2-thienyl}carbonyl)pyrimidin-4-yl]amino}-2-hydroxycyclopentyl]methyl sulfamate] | 98 | < 10
C[C@@](O)(c1ccccc1)c1coc(C(=O)c2cncnc2N[C@@H]2C[C@H](COS(N)(=O)=O)[C@@H](O)C2)c1.C[C@](O)(c1ccccc1)c1coc(C(=O)c2cncnc2N[C@@H]2C[C@H](COS(N)(=O)=O)[C@@H](O)C2)c1 (mixture of isomers) [I-58, {(1R,2S,4R)-2-hydroxy-4-[(5-{4-[(1S)-1-hydroxy-1-phenylethyl]-2-furoyl}pyrimidin-4-yl)amino]cyclopentyl}methyl sulfamate and {(1R,2S,4R)-2-hydroxy-4-[(5-{4-[(1R)-1-hydroxy-1-phenylethyl]-2-furoyl}pyrimidin-4-yl)amino]cyclopentyl}methyl sulfamate] | 96 | < 10
COc1ccc(Cl)cc1[C@@H](O)c1cc(C(=O)c2cncnc2N[C@@H]2C[C@H](COS(N)(=O)=O)[C@@H](O)C2)sc1Cl (mixture of isomers) [I-63, [(1R,2S,4R)-4-{[5-({5-chloro-4-[(R)-(5-chloro-2-methoxyphenyl)(hydroxy)methyl]-2-thienyl}carbonyl)pyrimidin-4-yl]amino}-2-hydroxycyclopentyl]methyl sulfamate and [(1R,2S,4R)-4-{[5-({5-chloro-4-[(S)-(5-chloro-2-methoxyphenyl)(hydroxy)methyl]-2-thienyl}carbonyl)pyrimidin-4-yl]amino}-2-hydroxycyclopentyl]methyl sulfamate] | 97 | < 10
NS(=O)(=O)OC[C@H]1C[C@@H](Nc2ncncc2C(=O)c2cc([C@]3(c4cccc(Cl)c4)CCO3)c(Cl)s2)C[C@@H]1O (mixture of isomers) [I-67, [(1R,2S,4R)-4-{[5-({5-chloro-4-[(2R)-2-(3-chlorophenyl)oxetan-2-yl]-2-thienyl}carbonyl)pyrimidin-4-yl]amino}-2-hydroxycyclopentyl]methyl sulfamate and [(1R,2S,4R)-4-{[5-({5-chloro-4-[(2S)-2-(3-chlorophenyl)oxetan-2-yl]-2-thienyl}carbonyl)pyrimidin-4-yl]amino}-2-hydroxycyclopentyl]methyl sulfamate] | 99 | < 10
Cc1sc(C(=O)c2cncnc2NC2CC(O)C(COS(N)(=O)=O)C2)cc1[S+]([O-])c1ccccc1 (mixture of isomers) [I-68, [(1R,2S,4R)-2-hydroxy-4-{[5-({5-methyl-4-[(R)-phenylsulfinyl]-2-thienyl}carbonyl)pyrimidin-4-yl]amino}cyclopentyl]methyl sulfamate and [(1R,2S,4R)-2-hydroxy-4-{[5-({5-methyl-4-[(S)-phenylsulfinyl]-2-thienyl}carbonyl)pyrimidin-4-yl]amino}cyclopentyl]methyl sulfamate] | 98 | < 10
COc1ccccc1[C@@H](O)c1cc(C(=O)c2cncnc2N[C@@H]2C[C@H](COS(N)(=O)=O)[C@@H](O)C2)sc1Cl (mixture of isomers) [I-85, [(1R,2S,4R)-4-{[5-({5-chloro-4-[(R)-hydroxy(2-methoxyphenyl)methyl]-2-thienyl}carbonyl)pyrimidin-4-yl]amino}-2-hydroxycyclopentyl]methyl sulfamate and [(1R,2S,4R)-4-{[5-({5-chloro-4-[(S)-hydroxy(2-methoxyphenyl)methyl]-2-thienyl}carbonyl)pyrimidin-4-yl]amino}-2-hydroxycyclopentyl]methyl sulfamate] | 97 | < 10
NS(=O)(=O)OC[C@H]1C[C@@H](Nc2ncncc2C(=O)c2cc([C@@H](O)c3ccccc3Cl)c(Cl)s2)C[C@@H]1O (mixture of isomers) [I-86, [(1R,2S,4R)-4-{[5-({5-chloro-4-[(S)-(2-chlorophenyl)(hydroxy)methyl]-2-thienyl}carbonyl)pyrimidin-4-yl]amino}-2-hydroxycyclopentyl]methyl sulfamate and [(1R,2S,4R)-4-{[5-({5-chloro-4-[(R)-(2-chlorophenyl)(hydroxy)methyl]-2-thienyl}carbonyl)pyrimidin-4-yl]amino}-2-hydroxycyclopentyl]methyl sulfamate] | 96 | < 10
CO[C@H](c1cccc(Cl)c1)c1cc(C(=O)c2cncnc2N[C@@H]2C[C@H](COS(N)(=O)=O)[C@@H](O)C2)sc1Cl (mixture of isomers) [I-90, [(1R,2S,4R)-4-{[5-({5-chloro-4-[(R)-(3-chlorophenyl)(methoxy)methyl]-2-thienyl}carbonyl)pyrimidin-4-yl]amino}-2-hydroxycyclopentyl]methyl sulfamate and [(1R,2S,4R)-4-{[5-({5-chloro-4-[(S)-(3-chlorophenyl)(methoxy)methyl]-2-thienyl}carbonyl)pyrimidin-4-yl]amino}-2-hydroxycyclopentyl]methyl sulfamate] | 97 | < 10
CN[C@@H](c1cccc(Cl)c1)c1cc(C(=O)c2cncnc2N[C@@H]2C[C@H](COS(N)(=O)=O)[C@@H](O)C2)sc1Cl.CN[C@H](c1cccc(Cl)c1)c1cc(C(=O)c2cncnc2N[C@@H]2C[C@H](COS(N)(=O)=O)[C@@H](O)C2)sc1Cl (mixture of isomers) [I-95, [(1R,2S,4R)-4-{[5-({5-Chloro-4-[(S)-(3-chlorophenyl)(methylamino)methyl]-2-thienyl}carbonyl)pyrimidin-4-yl]amino}-2-hydroxycyclopentyl]methyl sulfamate and [(1R,2S,4R)-4 {[5-({5-Chloro-4-[(R)-(3-chlorophenyl)(methylamino)methyl]-2-thienyl}carbonyl)pyrimidin-4-yl]amino}-2-hydroxycyclopentyl]methyl sulfamate] | 97 | < 10
C[C@@](O)(c1cccc(Cl)c1)c1cc(C(=O)c2cncnc2N[C@@H]2C[C@H](COS(N)(=O)=O)[C@@H](O)C2)sc1Cl (mixture of isomers) [I-102, [(1R,2S,4R)-4-{[5-({5-Chloro-4-[(1S)-1-(3-chlorophenyl)-1-hydroxyethyl]-2-thienyl}carbonyl)pyrimidin-4-yl]amino}-2-hydroxycyclopentyl]methyl sulfamate and [(1R,2S,4R)-4-{[5-({5-Chloro-4-[(1R)-1-(3-chlorophenyl)-1-hydroxyethyl]-2-thienyl}carbonyl)pyrimidin-4 yl]amino}-2-hydroxycyclopentyl]methyl sulfamate] | 94 | < 10
NS(=O)(=O)OC[C@H]1C[C@@H](Nc2ncncc2C(=O)c2cc([C@H](O)c3ccc(Cl)s3)c(Cl)s2)C[C@@H]1O (mixture of isomers) [I-103, [(1R,2S,4R)-4-{[5-({5-chloro-4-[(S)-(5-chloro-2-thienyl)(hydroxy)methyl]-2-thienyl}carbonyl)pyrimidin-4-yl]amino}-2-hydroxycyclopentyl]methyl sulfamate and [(1R,2S,4R)-4-{[5-({5-chloro-4-[(R)-(5-chloro-2-thienyl)(hydroxy)methyl]-2-thienyl}carbonyl)pyrimidin-4-yl]amino}-2-hydroxycyclopentyl]methyl sulfamate] | 96 | < 10

Source: patent US10780090B2, “Heteroaryl compounds useful as inhibitors of SUMO activating enzyme” (Millennium Pharmaceuticals, Inc., priority 2014, dated 2020)
